Measurements as given in patent publication US20250114367A1, “METHOD OF TREATING HAIR LOSS DISORDERS” (Sun Pharmaceutical Industries, Inc., priority 2023, published 2025).

What was measured:
plasma protein = experiment: Plasma protein binding of CTP-543 at 2 hours post-dose (renal impairment study); type: in vitro ADME, human; settings: moderate renal impairment vs matched controls with normal renal function
Source text: All subjects had samples collected for PK.

[1] = test system: adult subjects with moderate to severe AA; experiment: Phase III trial: Severity of Alopecia Tool (SALT) score; type: in vivo, human; settings: for percentages of participants (responders) stratified by duration of current AA episode: week 24
Procedure: The SALT score is calculated for a patient/subject by measuring the percentage of hair loss in each of the 4 areas of the scalp and adding the total to achieve a composite score (referred to herein as an absolute SALT score). Hair regrowth is reflected by a decrease in the SALT score.
(§1) Approximately 440 adult male and female subjects 18 to 65 years of age, inclusive, with moderate to severe AA participated in the study. Subjects with definitive diagnosis of AA, and at least 50% hair loss, as defined by a SALT score ≥50, who met all of the inclusion criteria and none of the exclusion criteria participated in the study.
(§2) The Screening Period lasted up to 28 days prior to initiation of study drug. […] Randomization was stratified by scalp hair loss into 1 of the following 2 categories: 1) partial scalp hair loss (SALT ≥50 and <95), 2) complete or near complete scalp hair loss (SALT ≥95).
Assessment of treatment response using SALT for efficacy occurred at 4, 8, 12, 16, 20 and 24 weeks.
The primary efficacy endpoint was the percentage of subjects achieving an absolute SALT score of ≤20.
(§3) Additional secondary efficacy endpoints included the following: • Relative change in SALT scores from baseline at Weeks 4, 8, 12, 16, 20, and 24. • Percentage of responders (defined as “much improved” or “very much improved”) using the Clinical Global Impression of Improvement (CGI-I) at Weeks 12, 16, 20, and 24. • Percentage of responders (defined as “much improved” or “very much improved”) using the Patient Global Impression of Improvement (PGI-I) at Weeks 12, 16, 20, and 24. • Change from baseline in the Clinical Global Impression of Severity (CGI-S) at Weeks 12, 16, 20, and 24. • Change from baseline in the Patient Global Impression of Severity (PGI-S) at Weeks 12, 16, 20, and 24. • Change from baseline on the Brigham Eyebrow Tool for Alopecia (BETA) score at Weeks 12 and 24. • Change from baseline on the Brigham Eyelash Tool for Alopecia (BELA) score at Weeks 12 and 24. • Percentage of subjects achieving at least a 75% relative reduction in SALT score from baseline at Weeks 12 and 24. • Percentage of subjects achieving at least a 90% relative reduction in SALT score from baseline at Weeks 12 and 24. • Percentage of responders (defined as “satisfied” or “very satisfied”) on the SPRO scale at Weeks 12, 16, and 20. • Change from baseline in the SPRO scale at Weeks 12, 16, 20, and 24. • Percentage of subjects achieving a ≥2-point change from baseline in the SPRO scale at Weeks 12, 16, 20, and 24. • Change from baseline on the individual items of the Hair Quality Patient Reported Outcome (QPRO) scale at Weeks 12, 16, 20, and 24. • Change from baseline in the depression scale of the Hospital Anxiety and Depression Scale (HADS) at Week 24. • Change from baseline in the anxiety scale of the HADS at Week 24. • Percentage of subjects achieving an absolute SALT score of ≤20 at Week 4. • Percentage of subjects achieving an absolute SALT score of ≤10 at Week 24
• Clinical presentation compatible with alopecia areata with a current episode lasting at least 6 months and not exceeding 10 years at the time of Screening. Total disease duration greater than 10 years is permitted. • At least 50% scalp hair loss, as defined by a Severity of Alopecia Tool (SALT) score ≥50, at Screening and Baseline. • Willing to comply with the study visits and requirements of the study protocol.
This will include but is not limited to: • a. Platelets ≤100×109/L or ≥600×109/L • b. Absolute neutrophil count ≤1.5×109/L • c.

[2] = test system: adult subjects with moderate to severe AA; experiment: Phase III trial: Patient Global Impression of Severity (PGI-S); type: in vivo, human
Procedure: The PGI-S was assessed by the subject and considered the severity of his/her alopecia areata at the time of assessment. The subject selected 1 of 7 numeric choices representing “Among the most extreme hair loss” to “Normal, no hair loss.” The definitions of the numeric choices is as follows: 1=normal, no hair loss; 2=borderline hair loss; 3=mild hair loss; 4=moderately hair loss; 5=marked hair loss; 6=severe hair loss; 7=among the most extreme hair loss.
as §1, with “A Phase III trial was conducted to assess the efficacy and safety of CTP-543 in adult subjects with moderate to severe AA. Approximately” for “Approximately”
as §2, §3
A decrease from baseline indicates improvement (impression is decreased severity). The LS mean treatment group difference was in favor of the CTP-543 groups over the placebo group at all timepoints evaluated. […] Detailed data for each time point are described below.

Question: Which “differences in plasma protein binding between cohorts” value (plasma protein) does the source give for `[2H]C1([2H])C([C@@H](CC#N)n2cc(-c3ncnc4[nH]ccc34)cn2)C([2H])([2H])C([2H])([2H])C1([2H])[2H]` [CTP-543, (R)-3-(4-(7H-pyrrolo[2,3-d]pyrimidin-4-yl)-1H-pyrazol-1-yl)-3-(cyclopentyl-2,2,3,3,4,4,5,5-d8) propanenitrile] here?
Answer: no meaningful differences

Question: What about the “percentage of subjects achieving an absolute SALT score of ≤20” value (“percentage … of ≤20” for short) ([1]; Week 8, 12 mg BID) of the same compound?
Answer: 2.4%

Question: And the “percentage … of ≤20” value ([1]; Week 12, 8 mg BID)?
Answer: 10.5%

Question: What about the “percentage … of ≤20” value ([1]; Week 12, 12 mg BID) of the same compound?
Answer: 12.3%

Question: What about the “percentage … of ≤20” value ([1]; Week 16, 8 mg BID) of the same compound?
Answer: 20.2%

Question: And the “percentage … of ≤20” value ([1]; Week 16, 12 mg BID)?
Answer: 21.1%

Question: What about the “percentage … of ≤20” value ([1]; Week 20, 12 mg BID) of the same compound?
Answer: 28.8%

Question: What about the “percentage … of ≤20” value ([1]; Week 24, 8 mg BID) of the same compound?
Answer: 33%

Question: And the “percentage … of ≤20” value ([1]; Week 24, 12 mg BID)?
Answer: 38.3%

Question: And the “percentage of subjects with an absolute SALT score ≤10” value ([1]; Week 24, 12 mg BID)?
Answer: 26.7%

Question: And the “subjects achieving SALT score ≤20” value ([1]; Week 24, complete or near-complete scalp hair loss, 8 mg BID, 31/156)?
Answer: 20.9%

Question: What about the “subjects achieving SALT score ≤20” value ([1]; Week 24, complete or near-complete scalp hair loss, 8 mg BID, 37/184) of the same compound?
Answer: 20.1%

Question: And the “subjects achieving SALT score ≤20” value ([1]; Week 24, complete or near-complete scalp hair loss, 12 mg BID, 19/79)?
Answer: 26.0

Question: And the “subjects achieving SALT score ≤20” value ([1]; Week 24, complete or near-complete scalp hair loss, 12 mg BID, 33/112)?
Answer: 29.5

Question: What about the “subjects achieving SALT score ≤20” value ([1]; Week 24, partial scalp hair loss at baseline, 8 mg BID, 46/93) of the same compound?
Answer: 54.1%

Question: What about the “subjects achieving SALT score ≤20” value ([1]; Week 24, partial scalp hair loss at baseline, 8 mg BID, 57/134) of the same compound?
Answer: 42.5%

Question: And the “subjects achieving SALT score ≤20” value ([1]; Week 24, partial scalp hair loss at baseline, 12 mg BID, 27/48)?
Answer: 57.4%

Question: And the “subjects achieving SALT score ≤20” value ([1]; Week 24, partial scalp hair loss at baseline, 12 mg BID, 50/88)?
Answer: 56.8%

Question: What about the “hair regrowth vs placebo” value ([1]; two Phase 3 trials, THRIVE-AA1 and THRIVE-AA2) of the same compound?
Answer: significant improvements in hair regrowth vs placebo

Question: What about the “percentage … of ≤20” value ([1]; week 8, 8 mg BID) of the same compound?
Answer: 2.9%

Question: What about the “percentages of participants (responders) stratified by duration of current AA episode” value (from here on “percentages of participants”) ([1]; >4 years duration, 12 mg BID, 13/50) of the same compound?
Answer: 28.9%

Question: What about the “percentages of participants” value ([1]; ≤4 years duration, 8 mg BID, 57/157) of the same compound?
Answer: 38.3%

Question: What about the “percentages of participants” value ([1]; ≤4 years duration, 12 mg BID, 33/77) of the same compound?
Answer: 44.0%

Question: And the “PGI-S, LS mean change from baseline” value ([2]; Week 12, 8 mg BID)?
Answer: −1.6

Question: And the “PGI-S, LS mean change from baseline” value ([2]; Week 12, 12 mg BID)?
Answer: −1.8

Question: What about the “PGI-S, LS mean change from baseline” value ([2]; Week 16, 12 mg BID) of the same compound?
Answer: −2.0

Question: And the “PGI-S, LS mean change from baseline” value ([2]; Week 20, 8 mg BID)?
Answer: −2.0

Question: What about the “PGI-S, LS mean change from baseline” value ([2]; Week 20, 12 mg BID) of the same compound?
Answer: −2.2

Question: What about the “PGI-S, LS mean change from baseline” value ([2]; Week 24, 8 mg BID) of the same compound?
Answer: −2.2

Question: What about the “PGI-S, LS mean change from baseline” value ([2]; Week 24, 12 mg BID) of the same compound?
Answer: −2.5
